Assay results: paper PMC5590943, “Pharmacological characterisation of S 47445, a novel positive allosteric modulator of AMPA receptors” (PLoS ONE, 2017)

Assays:
[1] = target: GluA1flop/GluA2flip (GluA1o/2i) AMPA receptors (Homo sapiens, UniProt P42261+P42262, Q607R); experiment: Whole cell patch clamp recordings in transiently transfected HEK-293 cells; conditions: 0.1 μM S 47445
[2] = test system: PDE3 (h); experiment: Enzyme and cell-based assay, [3H]cAMP + cAMP (0.1 μM)
[3] = target: EGFR kinase (h) (Homo sapiens, UniProt P00533); experiment: Enzyme and cell-based assay, ATP + biotinyl peptide (0.1 μM)
[4] = test system: male NMRI mice; experiment: Functional observation battery in mice; type: in vivo, mouse
Description: The effect of 47445 after high doses administration was assessed on general behaviour in mice. Male NMRI mice (18–22 g, Janvier Labs, Le Genest Saint Isle, France) were used and placed individually for habituation, 15 min before administration. Room temperature was maintained at 20.9°C during experimentation. At T0 min, body temperature was monitored via a rectal probe connected to a computer (Viewpoint). Mice were then orally treated with S 47445 (30, 100 and 300 mg/kg) or vehicle. […] Delta of body temperature compared to T0 min (°C) was calculated. Groups were compared for body temperature at T0 min with a one-way ANOVA followed by Tukey’s pair-wise comparison post hoc tests. The treatment effect on delta of body temperature compared to T0 min was analysed using a two-way ANOVA followed by Dunnett’s post hoc tests. Analyses were performed using SAS v9.2 software (SAS Institute, Cary, NC).

[5] = test system: Kainate; experiment: Binding assay, [3H]kainic acid, rat cerebral cortex membranes
[6] = test system: GABA (non-selective); experiment: Binding assay, [3H]GABA
[7] = test system: Ca2+ channel (L, diltiazem site) (benzothiazepines); experiment: Binding assay, [3H]diltiazem
[8] = Solubility noted in co-crystallization experiments with GluA2; type: physicochemical; conditions: prevented co-crystallization with GluA2
[9] = test system: Human AMPA receptors; experiment: AMPA-evoked currents, Xenopus laevis oocytes injected with human hippocampal poly(A+) mRNA; type: cell-based; conditions: geometric mean
Description: Compounds were tested by bath application.

[10] = test system: mature form of BDNF; parameters: method as in PMID 7718245; conditions: aged rats, from the dose of 1 mg/kg; cited from earlier work
[11] = test system: male OFA rats; experiment: Novel object recognition test in rats; type: in vivo, rat; conditions: 3 administrations
Description: Novel object recognition and T-maze studies were conducted respectively in male OFA rats (150–175 g, Charles River, Saint-Germain-Nuelles, France) and male C57Bl/6 mice (5.5–6.5 month-old, Charles River, Saint-Germain-Nuelles, France). Animals were housed in collective cages with continuous access to tap water and food on a 12 h light-dark cycle, in a temperature-controlled (21 ± 1°C) and ventilated room. On completion of studies subjects were euthanized by either CO2 inhalation or intraperitoneal (i.p.) lethal pentobarbital injection. The novel object recognition test was used as the primary in vivo screening assay to identify AMPA-PAMs. The T-maze task was performed using a modified continuous performance procedure previously described in mice.
S 47445 was suspended either in distilled water with Tween80® 2% for oral administration or saline with Tween80® 2% for i.p. administration. Tween80® was obtained from Sigma-Aldrich, Lyon, France. S 47445 was synthetized by Servier, Suresnes, France. […]
The novel object recognition paradigm was developed by Ennaceur and Delacour, 1988 and aimed to evaluate potential procognitive effects of drugs on a form of recognition (episodic-like) memory in the rat. […] Consequently, recognition is measured by the time spent by rats in exploring two different objects, one being familiar and the other being new.
Animals were submitted to three phases of the test. […] Each rat was placed in the arena, and the time spent actively exploring the objects was recorded. […] After 24 h, during the third phase (session of recognition), each rat was again placed in the apparatus for 3 min in the presence of one of the familiar (Fam) objects and a new (New) object, and the time spent exploring both objects was again recorded. […] The difference in duration of exploration of the two objects (New-Fam) and the sum of duration of exploration on session of recognition were determined. Statistical analysis was performed on the discrimination index calculated as (New-Fam)/(Fam+New) using a one-way ANOVA using SAS v9.2 software (SAS Institute, Cary, NC). […]

[12] = test system: Ca2+ channel (L, verapamil site) phenylalkylamines); experiment: Binding assay, [3H](-)D 888

EGFR kinase (h), sequence (P00533 25-1210): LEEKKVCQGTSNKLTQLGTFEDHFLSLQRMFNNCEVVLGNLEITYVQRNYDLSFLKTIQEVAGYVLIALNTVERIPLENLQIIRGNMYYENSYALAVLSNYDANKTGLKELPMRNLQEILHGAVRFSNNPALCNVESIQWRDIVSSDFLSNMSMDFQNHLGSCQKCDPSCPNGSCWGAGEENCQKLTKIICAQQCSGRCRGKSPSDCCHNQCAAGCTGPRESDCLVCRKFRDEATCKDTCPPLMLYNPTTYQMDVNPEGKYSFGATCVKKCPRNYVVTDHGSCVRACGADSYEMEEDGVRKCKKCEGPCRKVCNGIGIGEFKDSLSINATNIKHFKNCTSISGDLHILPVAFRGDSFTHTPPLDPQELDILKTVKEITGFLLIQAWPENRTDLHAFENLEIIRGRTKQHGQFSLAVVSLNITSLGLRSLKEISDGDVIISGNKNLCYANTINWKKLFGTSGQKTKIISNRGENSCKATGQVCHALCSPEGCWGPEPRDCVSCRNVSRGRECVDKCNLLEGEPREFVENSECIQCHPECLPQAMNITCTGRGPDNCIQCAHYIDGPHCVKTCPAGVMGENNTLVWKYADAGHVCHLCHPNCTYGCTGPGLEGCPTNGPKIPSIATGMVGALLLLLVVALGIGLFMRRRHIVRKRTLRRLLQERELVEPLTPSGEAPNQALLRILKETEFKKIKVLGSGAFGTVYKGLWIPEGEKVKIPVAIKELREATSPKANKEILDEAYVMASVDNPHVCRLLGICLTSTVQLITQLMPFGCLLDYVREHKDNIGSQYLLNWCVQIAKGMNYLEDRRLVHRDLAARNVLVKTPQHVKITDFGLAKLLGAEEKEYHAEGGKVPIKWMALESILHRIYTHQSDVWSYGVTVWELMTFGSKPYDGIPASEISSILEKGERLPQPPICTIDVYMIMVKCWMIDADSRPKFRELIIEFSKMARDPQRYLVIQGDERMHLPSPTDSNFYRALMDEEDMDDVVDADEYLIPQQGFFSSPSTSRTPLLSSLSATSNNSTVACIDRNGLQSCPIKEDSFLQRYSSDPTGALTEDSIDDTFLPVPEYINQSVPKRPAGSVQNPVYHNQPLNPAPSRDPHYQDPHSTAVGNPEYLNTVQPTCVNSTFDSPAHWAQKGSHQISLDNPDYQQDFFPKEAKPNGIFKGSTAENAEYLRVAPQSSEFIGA
GluA1flop/GluA2flip (GluA1o/2i) AMPA receptors, sequence (P42261 19-906): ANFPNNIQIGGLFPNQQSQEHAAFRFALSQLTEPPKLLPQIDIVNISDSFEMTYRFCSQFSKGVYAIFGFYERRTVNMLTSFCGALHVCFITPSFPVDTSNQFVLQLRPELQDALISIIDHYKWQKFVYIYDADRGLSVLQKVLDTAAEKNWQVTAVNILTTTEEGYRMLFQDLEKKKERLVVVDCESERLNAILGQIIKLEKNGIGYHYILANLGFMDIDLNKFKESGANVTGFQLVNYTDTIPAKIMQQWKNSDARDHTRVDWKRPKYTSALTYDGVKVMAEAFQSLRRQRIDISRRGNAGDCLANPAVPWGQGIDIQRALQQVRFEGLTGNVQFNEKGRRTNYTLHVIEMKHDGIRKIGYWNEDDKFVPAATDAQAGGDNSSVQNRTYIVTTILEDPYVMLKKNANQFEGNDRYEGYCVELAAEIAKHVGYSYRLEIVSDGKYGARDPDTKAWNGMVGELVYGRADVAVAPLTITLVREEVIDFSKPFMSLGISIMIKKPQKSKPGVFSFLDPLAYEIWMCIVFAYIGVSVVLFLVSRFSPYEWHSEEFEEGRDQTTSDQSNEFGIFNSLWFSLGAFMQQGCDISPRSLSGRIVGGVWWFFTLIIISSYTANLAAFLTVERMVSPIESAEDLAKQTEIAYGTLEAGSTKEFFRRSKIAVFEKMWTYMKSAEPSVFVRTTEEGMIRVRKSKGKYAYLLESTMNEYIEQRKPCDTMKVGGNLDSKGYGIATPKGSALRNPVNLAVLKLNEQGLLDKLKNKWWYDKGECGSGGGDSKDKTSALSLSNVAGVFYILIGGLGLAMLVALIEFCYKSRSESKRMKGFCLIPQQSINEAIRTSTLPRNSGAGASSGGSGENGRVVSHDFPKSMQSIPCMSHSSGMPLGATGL
GluA1flop/GluA2flip (GluA1o/2i) AMPA receptors, sequence (P42262 25-883 isoform P42262-2 Q607R): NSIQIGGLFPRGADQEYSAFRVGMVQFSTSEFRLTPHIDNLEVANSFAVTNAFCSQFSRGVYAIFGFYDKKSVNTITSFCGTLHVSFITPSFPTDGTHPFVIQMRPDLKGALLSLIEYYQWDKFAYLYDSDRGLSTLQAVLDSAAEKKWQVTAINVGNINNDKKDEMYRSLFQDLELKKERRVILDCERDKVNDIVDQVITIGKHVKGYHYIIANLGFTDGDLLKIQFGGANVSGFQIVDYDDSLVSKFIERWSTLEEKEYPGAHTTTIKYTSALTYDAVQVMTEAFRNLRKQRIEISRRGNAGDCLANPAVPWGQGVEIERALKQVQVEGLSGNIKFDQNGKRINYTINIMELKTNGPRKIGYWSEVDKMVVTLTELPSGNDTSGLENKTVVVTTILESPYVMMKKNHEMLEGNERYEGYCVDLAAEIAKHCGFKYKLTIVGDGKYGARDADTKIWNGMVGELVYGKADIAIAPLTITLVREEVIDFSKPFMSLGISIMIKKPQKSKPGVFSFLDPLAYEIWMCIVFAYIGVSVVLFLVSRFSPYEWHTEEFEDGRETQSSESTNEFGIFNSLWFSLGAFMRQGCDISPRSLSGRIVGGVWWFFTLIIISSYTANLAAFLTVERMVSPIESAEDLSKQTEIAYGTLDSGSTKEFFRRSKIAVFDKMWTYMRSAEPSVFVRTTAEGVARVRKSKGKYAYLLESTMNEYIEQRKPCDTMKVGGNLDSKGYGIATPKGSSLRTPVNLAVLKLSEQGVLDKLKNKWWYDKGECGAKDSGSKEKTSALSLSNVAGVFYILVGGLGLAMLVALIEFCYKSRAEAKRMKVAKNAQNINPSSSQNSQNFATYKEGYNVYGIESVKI

## O=C1c2cc3nnn(CCc4cccc(F)c4)c(=O)c3cc2OCN1C1CC1 [S 47445, 8-cyclopropyl-3-[2-(3-fluorophenyl)ethyl]-7,8-dihydro-3H-[1,3]oxazino[6,5-g][1,2,3]benzotriazine-4,9-dione]
[1]
  Leftward shift in the EC50 of glutamate: about 16 fold
[1]; control 94.7 ± 32.8 pA
  Amplitude of the glutamate response in presence of S 47445: 247 ± 70 pA
[2]; S 47445 1.0E-05 M
  % Inhibition of control specific binding: -5%
[2]; S 47445 1.0E-07 M
  % Inhibition of control specific binding: 0%
[3]; S 47445 1.0E-05 M
  % Inhibition of control specific binding: 0%
[3]; S 47445 1.0E-07 M
  % Inhibition of control specific binding: -8%
[4]; 30, 100 and 300 mg/kg oral acute
  Body temperature and behavior: no significant effect
[4]; up to 300 mg/kg p.o.
  Spontaneous epileptic seizures: No occurrence
[5]; S 47445 1.0E-05 M
  % Inhibition of control specific binding: 25%
[5]; S 47445 1.0E-07 M
  % Inhibition of control specific binding: 7%
[5]; read-out: Ki, glutamate binding site, n = 2
  Ki: > 10 µM
[6]; S 47445 1.0E-05 M
  % Inhibition of control specific binding: 7%
[6]; S 47445 1.0E-07 M
  % Inhibition of control specific binding: 4%
[7]; S 47445 1.0E-05 M
  % Inhibition of control specific binding: 25%
[7]; S 47445 1.0E-07 M
  % Inhibition of control specific binding: -6%
[8]
  Solubility: poor solubility
[9]; concentration giving a two-fold increase in current amplitude
  EC2X: 4.77 µM
[9]; potentiation of 10 μM AMPA-evoked current
  EC50: 7.08 µM
[10]
  Neurotrophic effect on BDNF proteins: inducing mature form of BDNF proteins
[11]; 0.3 mg/kg p.o., p ≤ 0.01
  Discrimination index versus vehicle: significantly increased the discrimination index
[11]; 1 mg/kg p.o., tendency of increase
  Discrimination index versus vehicle: did not reach statistical significance
[11]; 3 mg/kg p.o., p ≤ 0.05
  Discrimination index versus vehicle: significantly increased the discrimination index
[12]; S 47445 1.0E-05 M
  % Inhibition of control specific binding: -1%
[12]; S 47445 1.0E-07 M
  % Inhibition of control specific binding: 4%
